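Briefly, cells in 96-well plates were exposed to five compound concentrations for 48 h, and endpoints were estimated by linear interpolation. Abbreviation: GI50, concentration required for 50% inhibition of growth.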 The source made the active and inactive calls. No stated cut-off is given here; in the data, active = GI50 up to about 1.1 µM and inactive = higher.
Assays:
Test in all cases: NCI anticancer screen, dose series, 48 h
NCI-H226 = test system: NCI-H226
OVCAR-5 = test system: OVCAR-5
CAKI-1 = test system: CAKI-1
ACHN = test system: ACHN
TK-10 = test system: TK-10
NCI-H460 = test system: NCI-H460
SF-268 = test system: SF-268
M14 = test system: M14
HCT-116 = test system: HCT-116
SNB-75 = test system: SNB-75
NCI-H522 = test system: NCI-H522
HT-29 = test system: HT-29
OVCAR-8 = test system: OVCAR-8
HL-60 = test system: HL-60
SF-295 = test system: SF-295
SK-MEL-5 = test system: SK-MEL-5
OVCAR-4 = test system: OVCAR-4
SF-539 = test system: SF-539

Measured: GI50

O=C(CCc1nnc(S)[nH]1)Nc1cccc(C(F)(F)F)c1
inactive: NCI-H226 > 100 µM | OVCAR-5 > 100 µM | CAKI-1 > 100 µM | ACHN > 100 µM | TK-10 > 100 µM | NCI-H460 > 100 µM | SF-268 > 100 µM | M14 > 100 µM | HCT-116 > 100 µM | SNB-75 > 100 µM | NCI-H522 35.2 µM | HT-29 > 100 µM | OVCAR-8 > 100 µM | HL-60 > 100 µM | SF-295 > 100 µM | SK-MEL-5 > 100 µM | OVCAR-4 > 100 µM | SF-539 > 100 µM

Cc1nc(Nc2ccccc2)sc1C(=O)NNC(N)=O
inactive: NCI-H226 > 100 µM | OVCAR-5 > 100 µM | CAKI-1 > 100 µM | ACHN > 100 µM | TK-10 > 100 µM | NCI-H460 > 100 µM | SF-268 > 100 µM | M14 > 100 µM | HCT-116 > 100 µM | SNB-75 29.6 µM | NCI-H522 > 100 µM | OVCAR-8 > 100 µM | HL-60 > 100 µM | SF-295 > 100 µM | SK-MEL-5 > 100 µM | OVCAR-4 > 100 µM | SF-539 > 100 µM

C=C1CCCC2OC(OC)CCC12 (configuration not stated)
inactive: NCI-H226 > 100 µM | OVCAR-5 > 100 µM | CAKI-1 > 100 µM | ACHN > 100 µM | TK-10 > 100 µM | NCI-H460 > 100 µM | SF-268 > 100 µM | M14 > 100 µM | HCT-116 > 100 µM | SNB-75 > 100 µM | NCI-H522 > 100 µM | HT-29 > 100 µM | OVCAR-8 > 100 µM | HL-60 > 100 µM | SF-295 > 100 µM | SK-MEL-5 > 100 µM | OVCAR-4 > 100 µM | SF-539 > 100 µM

O=C1CSC(Cc2nc3ccccc3[nH]2)=N1
inactive: NCI-H226 13.9 µM | OVCAR-5 28.8 µM | CAKI-1 15.8 µM | ACHN 5.41 µM | TK-10 28.2 µM | SF-268 16.7 µM | M14 15.4 µM | HCT-116 12.9 µM | SNB-75 17.1 µM | NCI-H522 17.7 µM | HT-29 24.7 µM | OVCAR-8 23.5 µM | HL-60 28.6 µM | SF-295 24.7 µM | SK-MEL-5 7.45 µM | OVCAR-4 18.5 µM | SF-539 20.7 µM

O=C(O)CCc1cccc2c1oc1c(CCC(=O)O)cccc12
inactive: NCI-H226 > 100 µM | OVCAR-5 > 100 µM | CAKI-1 > 100 µM | ACHN > 100 µM | TK-10 > 100 µM | NCI-H460 > 100 µM | SF-268 > 100 µM | M14 > 100 µM | HCT-116 > 100 µM | SNB-75 > 100 µM | NCI-H522 > 100 µM | HT-29 > 100 µM | OVCAR-8 > 100 µM | HL-60 > 100 µM | SF-295 > 100 µM | SK-MEL-5 > 100 µM | OVCAR-4 > 100 µM | SF-539 > 100 µM

CCC(COC(=O)CC[C@@H](NC(=O)C(C)NC(=O)C(C)OC1C(O)C(CO)OC(OCc2ccccc2)C1NC(C)=O)C(N)=O)NC1c2ccccc2Nc2cccc([N+](=O)[O-])c21 (some centres not stated)
inactive: NCI-H226 > 100 µM | OVCAR-5 > 100 µM | CAKI-1 > 100 µM | ACHN > 100 µM | TK-10 > 100 µM | NCI-H460 54 µM | SF-268 > 100 µM | M14 > 100 µM | HCT-116 > 100 µM | SNB-75 94.8 µM | NCI-H522 > 100 µM | HT-29 > 100 µM | OVCAR-8 > 100 µM | HL-60 > 100 µM | SF-295 > 100 µM | SK-MEL-5 > 100 µM | OVCAR-4 > 100 µM | SF-539 > 100 µM

CC(O)/C=C/C(CCC(C)CO)C(C)C (configuration not stated)
inactive: OVCAR-5 > 100 µM | CAKI-1 > 100 µM | ACHN > 100 µM | TK-10 > 100 µM | NCI-H460 > 100 µM | SF-268 > 100 µM | M14 > 100 µM | HCT-116 > 100 µM | SNB-75 > 100 µM | NCI-H522 > 100 µM | HT-29 > 100 µM | OVCAR-8 > 100 µM | HL-60 > 100 µM | SF-295 > 100 µM | SK-MEL-5 > 100 µM | OVCAR-4 > 100 µM | SF-539 > 100 µM

O=C1c2ccccc2CC1C1(O)C(=O)Nc2c(Cl)cc(Cl)cc21 (configuration not stated)
inactive: NCI-H226 44.2 µM | OVCAR-5 > 100 µM | CAKI-1 > 100 µM | ACHN 64 µM | TK-10 > 100 µM | NCI-H460 99.8 µM | SF-268 61 µM | M14 > 100 µM | SNB-75 61.9 µM | NCI-H522 17.9 µM | HT-29 67.8 µM | OVCAR-8 39.4 µM | HL-60 35.9 µM | SF-295 47.9 µM | SK-MEL-5 27.9 µM | OVCAR-4 92.5 µM

CC(=O)Nc1ccc(C(=O)NN2C(=O)C(Cl)C2c2cc(Br)cc(Br)c2O)cc1 (configuration not stated)
inactive: NCI-H226 > 100 µM | OVCAR-5 > 100 µM | CAKI-1 > 100 µM | ACHN > 100 µM | NCI-H460 > 100 µM | SF-268 > 100 µM | M14 > 100 µM | HCT-116 > 100 µM | SNB-75 37.3 µM | NCI-H522 > 100 µM | OVCAR-8 > 100 µM | HL-60 > 100 µM | SK-MEL-5 > 100 µM | OVCAR-4 > 100 µM | SF-539 > 100 µM

C=C(C(=C)P(=S)(c1ccccc1)c1ccccc1)P(=S)(c1ccccc1)c1ccccc1
inactive: OVCAR-5 > 100 µM | CAKI-1 > 100 µM | ACHN > 100 µM | TK-10 > 100 µM | NCI-H460 > 100 µM | SF-268 > 100 µM | M14 > 100 µM | HCT-116 > 100 µM | SNB-75 45.5 µM | NCI-H522 > 100 µM | HT-29 > 100 µM | OVCAR-8 > 100 µM | HL-60 7.33 µM | SF-295 > 100 µM | SK-MEL-5 > 100 µM | OVCAR-4 34.8 µM | SF-539 > 100 µM

Cc1cc(C)n(CCNCCn2nc(C)cc2C)n1
inactive: CAKI-1 > 100 µM | ACHN > 100 µM | TK-10 > 100 µM | NCI-H460 > 100 µM | SF-268 > 100 µM | M14 > 100 µM | HCT-116 > 100 µM | SNB-75 > 100 µM | NCI-H522 > 100 µM | OVCAR-8 > 100 µM | HL-60 > 100 µM | SF-295 > 100 µM | SK-MEL-5 > 100 µM | OVCAR-4 > 100 µM | SF-539 > 100 µM

Cc1cccc(C)c1NC(=O)CCC(=O)NC(N)=S
inactive: NCI-H226 > 100 µM | OVCAR-5 > 100 µM | CAKI-1 > 100 µM | ACHN > 100 µM | TK-10 > 100 µM | NCI-H460 > 100 µM | M14 > 100 µM | HCT-116 > 100 µM | SNB-75 > 100 µM | NCI-H522 > 100 µM | HT-29 > 100 µM | OVCAR-8 > 100 µM | HL-60 > 100 µM | SF-295 > 100 µM | SK-MEL-5 > 100 µM | SF-539 > 100 µM

— ChEMBL document CHEMBL1201862, “PubChem BioAssay data set” (2004)
